Patent US5955505A, “Glutamic acid receptor agonist” (Nippon Suisan Kaisha, Ltd., priority 1995, dated 1999)
Entries after “also recorded” stand apart in the source; their conditions may differ.

Columns and labels:
non-NMDA receptors [1] = test: Potentiation of AMPA- or kainic acid-elicited membrane current in Xenopus oocytes injected with rat hippocampus poly(A)+ RNA (two-electrode voltage clamp)
Protocol: By use of an improved method of Masu's Xenopus oocyte expression system [Nature 329,836 (1987)] an electrophysiological analysis was conducted.
(1) Preparation of poly(A)^+ RNA isolated from a rat hippocampus.
A hippocampus region was isolated from a rat and homogenized in the presence of […] and total RNA was extracted from the hippocampus by means of the ultracentrifugating method utilizing cesium chloride. Poly(A)^+ RNA was refined from the obtained RNA by use of oligo dT cellulose column.
(2) Expression of protein in Xenopus oocytes
(§1) 50 nl of the poly(A)^+ RNA (1 μg/μl) isolated was injected into an oocyte by a micromanipulator and the oocytes were cultured in a Barth's medium (88 mM NaCl, 1 mM KCl, 2.4 mM NaHCO3, 0.3 mM Ca(NO3)2, 0.41 mM CaCl2, 0.82 mM MgSO4, 10 μg/ml sodium penicillin, 10 μg/ml streptomycin sulfate, and 15 mM HEPES) at 19° C. for three to four days and used for measurement.
(3) Electrophysiological and pharmacological experiment by two-electrodes voltage clamp method.
(§2) The above-mentioned oocyte was set in a chamber under perfusion of frog Ringer's solution (120 mM NaCl, 2 mM KCl, 1.8 mM CaCl2, and 5 mM HEPES, pH 7.4) and microelectrodes were inserted into oocytes and the membrane potential was fixed at -70 mV. Subsequently, another frog Ringer's solution in which AMPA (100 μM) or kainate(KA) (100 μM) both of which are agonists for non-NMDA receptors was dissolved was substituted for the original Ringer's solution and then an inward membrane current was measured.
The membrane potential was fixed at -70 mV. The response was defined as one which was generated on the specimen under perfusion of frog Ringer's solution in which AMPA or kainic acid both of which are agonists for non-NMDA receptors was dissolved until a final concentration of 100 μM. The responses are shown as relative values which were measured on the oocytes under perfusion of frog Ringer's solution in which the compound of the invention and anilacetum which is a potentiator for non-NMDA receptors were dissolved until a concentration of 50 μM with AMPA or kainic acid.

non-NMDA receptors [2] = test: Inward membrane current elicited by the compound alone in Xenopus oocytes injected with rat hippocampus poly(A)+ RNA (agonist action); assay type: cell-based; conditions: antagonist 1 μM
Protocol: as §1, §2

[3] = 50 μM test substance with 100 μM AMPA, membrane potential -70 mV, control (AMPA alone) = 1
[4] = 50 μM test substance with 100 μM kainic acid, membrane potential -70 mV, control (kainic acid alone) = 1

Row | SMILES | Potentiation (relative values with a control as 1), AMPA (non-NMDA receptors [1]; xenopus oocytes, 50 µM) | Potentiation (relative values with a control as 1), kainic acid (non-NMDA receptors [1]; xenopus oocytes, 50 µM) | other results
1 | N#Cc1cc2[nH]c(=O)c(=O)[nH]c2cc1[N+](=O)[O-] [CNQX, reference compound] | – | – | Inhibition of inward membrane current elicited by AMPA (100 μM) or kainate (100 μM) (non-NMDA receptors [1]; antagonist 1 μM, -70 mV): inhibited; Inhibition of inward membrane current elicited by the compound of the invention alone (non-NMDA receptors [2]): inhibited
2 | O=C(O)COc1c(F)cc(SCCNS(=O)(=O)c2ccc(Cl)cc2)cc1F [Compound 68, 2,6-Difluoro-4-[2-(4-chlorophenylsulfonylamino)ethylthio]phenoxyacetic acid] | 1.5 | 1.6 | –
3 | O=C(O)COc1ccc(SCCNS(=O)(=O)c2ccc(Br)cc2)cc1F [Compound 106, 2-Fluoro-4-[2-(4-bromophenylsulfonylamino)ethylthio]phenoxyacetic acid] | 1.4 | 1.5 | –
4 | COC(=O)COc1c(F)cc(SCCNS(=O)(=O)c2ccc(Cl)cc2)cc1F [Compound 128, methyl 4-[2-(4-chlorophenylsulfonylamino)ethylthio]-2,6-difluorophenoxyacetate] | 1.5 | 1.6 | –
5 | NC(=O)COc1c(F)cc(SCCNS(=O)(=O)c2ccccc2)cc1F [Compound 139, 4-[2-(Phenylsulfonylamino)ethylthio]-2,6-difluorophenoxyacetamide] | – | – | Potentiation of the non-NMDA receptor response (membrane current elicited by kainic acid and AMPA), in words (non-NMDA receptors [1]; 50 μM compound with 100 μM AMPA or kainic acid): definitely active; also recorded: especially strong action; Potentiation (relative values with a control as 1), AMPA (non-NMDA receptors [1]; [3]): 23.2; Potentiation (relative values with a control as 1), kainic acid (non-NMDA receptors [1]; [4]): 2.8
6 | NC(=O)COc1ccc(SCCNS(=O)(=O)c2ccccc2)cc1F [Compound 142, 4-[2-(Phenylsulfonylamino)ethylthio]-2-fluorophenoxyacetamide] | 1.6 | 1.5 | –
7 | CN(C)C(=O)COc1ccc(SCCNS(=O)(=O)c2ccccc2)cc1F [Compound 143, N,N-Dimethyl-4-[2-(phenylsulfonylamino)ethylthio]-2-fluorophenoxyacetamide] | 1.4 | 1.6 | –
8 | NC(=O)Cc1ccc(SCCNS(=O)(=O)c2ccccc2)cc1 [Compound 145, 4-[2-(phenylsulfonylamino)ethylthio]phenylacetamide] | 1.3 | 1.5 | –
9 | C[C@]12N[C@H](Cc3ccccc31)c1ccccc12 [MK-801] | – | – | Inhibition of inward membrane current elicited by the compound of the invention alone (non-NMDA receptors [2]): not inhibited
10 | COc1ccc(C(=O)N2CCCC2=O)cc1 [anilacetum, reference compound] | – | – | Potentiation (relative values with a control as 1), AMPA (non-NMDA receptors [1]; [3]): does not potentiate; Potentiation (relative values with a control as 1), AMPA (non-NMDA receptors [1]; 50 μM test substance with 100 μM AMPA, membrane potential -70 mV, control (AMPA alone) = 1, 50 µM): 1; Potentiation (relative values with a control as 1), kainic acid (non-NMDA receptors [1]; [4]): does not potentiate; Potentiation (relative values with a control as 1), kainic acid (non-NMDA receptors [1]; 50 μM test substance with 100 μM kainic acid, membrane potential -70 mV, control (kainic acid alone) = 1, 50 µM): 1; Effect on response elicited by AMPA (non-NMDA receptors [1]; 1 mM test substance): doubles; Effect on response elicited by kainic acid (non-NMDA receptors [1]; 1 mM test substance (20 times in concentration)): does not affect
